Test results as given in PubChem BioAssay (NCI).
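Five compound concentrations were applied to cells in 96-well plates for 48 hours; endpoints were derived by simple linear interpolation of the resulting dose-response curve. TGI: total growth inhibition.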

How the values were obtained:
Assay in all cases: NCI tumour cell line growth inhibition, 48 h
[1] = tested on: 786-0 renal
[2] = tested on: SNB-19 CNS
[3] = tested on: CCRF-CEM leukemia
[4] = tested on: OVCAR-5 ovarian
[5] = tested on: RPMI-8226 leukemia
[6] = tested on: SF-268 CNS
[7] = tested on: HT29 colon
[8] = tested on: MCF7 breast
[9] = tested on: SK-MEL-28 melanoma
[10] = tested on: CAKI-1 renal
[11] = tested on: MDA-N
[12] = tested on: LOX IMVI melanoma
[13] = tested on: OVCAR-3 ovarian
[14] = tested on: PC-3 prostate
[15] = tested on: SN12C renal
[16] = tested on: A549 NSCLC
[17] = tested on: MOLT-4 leukemia
[18] = tested on: NCI-H226 lung
[19] = tested on: RXF 393 renal
[20] = tested on: UACC-62 melanoma

SMILES	TGI [1] [µM]	TGI [2] [µM]	TGI [3] [µM]	TGI [4] [µM]	TGI [5] [µM]	TGI [6] [µM]	TGI [7] [µM]	TGI [8] [µM]	TGI [9] [µM]	TGI [10] [µM]	TGI [11] [µM]	TGI [12] [µM]	TGI [13] [µM]	TGI [14] [µM]	TGI [15] [µM]	TGI [16] [µM]	TGI [17] [µM]	TGI [18] [µM]	TGI [19] [µM]	TGI [20] [µM]
NC1C/C(=N\O)c2c(Cl)sc(Cl)c21 (stereo not drawn)	33.4	94.3	> 100	40	65.3	> 100	54.6	27.5	33.6	32.2	33.4	15.9	31.8	48.8	35	> 100	> 100	41.4	–	–
COc1cc(C2C3=C(COC3=O)OC(C)(C)Oc3cc4c(cc32)OCO4)cc(OC)c1O (stereo not drawn)	> 100	> 100	> 100	> 100	> 100	> 100	> 23.3	> 100	> 100	> 46.4	0.423	> 100	> 100	> 100	> 100	> 76.8	> 100	–	0.552	–
O=[N+]([O-])/C(C(Cl)=C(Cl)Cl)=C1\Nc2ccc([N+](=O)[O-])cc2N1	> 100	> 100	56.2	> 100	> 100	> 100	–	> 100	> 100	> 100	> 100	–	> 100	> 100	> 100	> 100	> 100	> 100	–	> 100
CCOC(=O)CN=c1nc(SC)sc2c(C(=O)OCC)nc(Sc3ccccc3)n12	> 100	–	> 100	> 100	> 100	> 100	> 100	–	–	> 100	–	> 100	> 100	–	> 100	–	–	> 100	–	> 100
CN(CCC(=O)N1CC(CCl)c2ccc([N+](=O)[O-])cc21)CCC(=O)N1CC(CCl)c2ccc([N+](=O)[O-])cc21 (stereo not drawn)	25	> 100	> 100	> 100	13.9	28.5	24	23.5	28.9	48	30.9	21.7	23.7	> 100	41.1	> 100	24.2	> 100	–	24.7
CC(=O)C(C(=O)c1ccc(C)cc1)[C@@H]1OC(C)(C)O[C@@H]1[C@H]1COC(C)(C)O1 (stereo partly drawn)	21.5	> 48.3	> 36.2	> 100	12.5	> 83.4	20	15.4	> 77.7	53.6	54.3	21.8	24.4	> 31.9	17.3	> 91.6	22.1	–	36.4	25.8
CN(C)CCn1c(=O)c2ccc(NCCNCCO)c3c(=O)c4ccccc4n(c1=O)c23	4.16	3.98	–	5.19	–	0.977	4.6	3.2	> 19.7	0.186	1.78	0.78	5.66	2.09	0.509	3.16	–	4.28	–	0.88
O=C(/C=C/c1cccc([N+](=O)[O-])c1)N1CCN(CCOC(c2ccccc2)c2ccccc2)CC1	> 100	> 100	65.4	> 100	27.8	–	71.5	> 100	64.2	> 100	> 100	62.1	> 100	–	> 100	> 100	27.4	–	> 100	> 100
CCCCNC(=S)Nc1nc(C(=O)NNC(=S)NCC)cs1	> 100	–	> 100	> 100	> 100	> 100	> 100	> 100	–	> 100	> 100	> 100	> 100	> 100	> 100	> 100	> 100	–	–	> 100
CC1(n2nc(-c3ccccc3)n(-c3ccccc3)c2=O)CSC1	> 100	> 100	> 100	> 100	> 100	> 100	> 100	–	> 100	> 100	–	> 100	–	–	> 100	> 100	> 100	> 100	> 100	> 100
CC(=O)OCC(OC(C)=O)C1C[C@H]2O[C@@H]3[C@H](C[C@H]2O1)O[C@@]1(C[C@@H]3C)C[C@H](C)[C@@H]2O[C@]3(C[C@@H]2O1)C[C@H]1O[C@H]2[C@H](C)[C@H]4OC(=O)C[C@H]5CC[C@@H]6OC7[C@H]8O[C@]9(CC[C@H]%10CC(=O)[C@H](CC[C@H]%11C[C@@H](C)C(=O)C(C[C@@H]4O[C@H]2C[C@H]1O3)O%11)O%10)CC8O[C@@H]7[C@@H](O9)[C@H]6O5 (stereo partly drawn)	> 1	> 1	> 1	–	–	> 1	–	> 1	> 1	> 1	–	> 0.859	> 1	> 1	> 1	> 1	> 1	0.0731	> 1	> 1
COc1ccc(NC(=S)Nc2cc(C)ccn2)cc1	> 100	> 100	> 100	–	> 100	> 100	> 100	> 100	> 100	> 100	–	> 100	–	> 100	–	–	> 100	> 100	> 100	> 100
Cc1noc(C)c1CCCOC1COc2ccccc2OCCOCCOc2ccccc2OC1	> 100	> 100	–	> 100	–	> 100	> 100	–	> 100	> 100	–	> 100	> 100	–	> 100	> 100	–	> 100	> 100	> 100
